Measurements as given in patent US8980610B2 (priority 2009, dated 2015).
Several values for one entry are separate records, joined by “and”; a condition that tells them apart may be missing. Identical values can stand only once. Like-named read-outs stand apart in the source and are kept apart here.

How the values were obtained:
[1] = tested on: X-MLV; assay: TRITON X-100 X-MLV inactivation in GE2-Fcγ-Fcε clarified conditioned media, TCID50 assay; format: cell-based, Xenotropic Murine leukemia virus
Description: Virus inactivation kinetics obtained by exposure to low pH, TRITON® X-100 and arginine were studied using sample process intermediates of a recombinant antibody designated GE2-Fcγ-Fcε. All studies were performed at 2-8° C.
For the TRITON® X-100 inactivation studies, TRITON® X-100 was added to the GE2-Fcγ-Fcε clarified conditioned media (CCM) at concentrations of 0.10% (v/v) and 0.20% (v/v). MABSELECT™ (GE Healthcare Bio-Sciences Corp., Piscataway, N.J., USA) Protein-A chromatography eluates containing GE2-Fcγ-Fcε with the pH adjusted to 3.7 or 3.9 were used as the starting material for the low pH viral inactivation studies. Neutralized MABSELECT™ Eluate buffer (1.0 M arginine-HCl, ˜5 mM Tris, pH 7.3 (+/−) 0.5) and neutralized MABSELECT™ Eluate buffer containing GE2-Fcγ-Fcε were also used as process intermediates for the additional inactivation studies. The process intermediates used in these studies were known to be stable under the examined conditions.
TRITON® X-100 inactivation experiments were performed in duplicate using final concentrations of 0.10% or 0.20% (v/v) TRITON® X-100 in GE2-Fcγ-Fcε clarified conditioned media.

[2] = tested on: polio virus; details: cited from earlier work
[3] = tested on: MMV; format: cell-based, Murine minute virus; details: 2-8° C.; for RF (Reduction Factor): 5 mM Tris + 1.0M Arginine-HCl (pH 7.0)
[4] = tested on: X-MLV; format: cell-based, Xenotropic Murine leukemia virus; details: for RF (Reduction Factor) / Sample Titer: 2-8° C.
[5] = tested on: SuHV-1; format: cell-based, Suid herpesvirus 1
[6] = tested on: X-MLV; format: cell-based, Xenotropic Murine leukemia virus
[7] = 0.10% (v/v) in GE2-Fcγ-Fcε clarified conditioned media, 2-8° C., 5 min
[8] = 0.10% (v/v) in GE2-Fcγ-Fcε clarified conditioned media, 2-8° C., 45 min
[9] = 0.10% (v/v) in GE2-Fcγ-Fcε clarified conditioned media, 2-8° C., 120 min
[10] = 0.20% (v/v) in GE2-Fcγ-Fcε clarified conditioned media, 2-8° C., 30 min
[11] = 0.20% (v/v) in GE2-Fcγ-Fcε clarified conditioned media, 2-8° C., 45 min
[12] = 5 mM Tris + 1.0M Arginine-HCl (pH 7.0), 2-8° C., 15 min
[13] = 5 mM Tris + 1.0M Arginine-HCl (pH 7.0), 2-8° C., 30 min
[14] = 5 mM Tris + 1.0M Arginine-HCl (pH 7.0), 2-8° C., 60 min
[15] = 5 mM Tris + 1.0M Arginine-HCl (pH 7.0), 2-8° C., 120 min
[16] = 5 mM Tris + 1.0M Arginine-HCl (pH 7.0), 2-8° C., 240 min (non-quenched)
[17] = 5 mM Tris + 1.0M Arginine-HCl (pH 7.0), 2-8° C., 240 min (quenched)
[18] = 1.0 M arginine-HCl, ~5 mM Tris, pH ~7.0, with GE2-Fcγ-Fcε 3.3 mg/mL, 2-8° C., 120 min

Q: Which “Adjusted titer of sample” value [1, 7] does the source give for TRITON ® X-100 here?
A: ≦2.00 Log10 TCID50/mL

Q: What about the “Titer of quenched sample” value [1, 7] of the same compound?
A: ≦0.70 Log10 TCID50/mL

Q: What about the “Adjusted titer of sample” value [1, 8] of the same compound?
A: ≦1.99 Log10 TCID50/mL

Q: What about the “Titer of quenched sample” value [1, 8] of the same compound?
A: ≦0.69 Log10 TCID50/mL

Q: What about the “Adjusted titer of sample (Output virus titer)” value [1, 9] of the same compound?
A: ≦1.99 Log10 TCID50/mL

Q: And the “RF (Reduction Factor)” value [1, 9]?
A: ≥ 3.1

Q: And the “Titer of quenched sample” value [1, 9]?
A: ≦0.69 Log10 TCID50/mL

Q: What about the “exposure time after which X-MLV was below detection limits” value ([1]; 0.10% and 0.20% TRITON X-100) of the same compound?
A: 5 min

Q: And the “RF (Reduction Factor)” value ([1]; 0.20% (v/v) in GE2-Fcγ-Fcε clarified conditioned media, 2-8° C., 15 min)?
A: ≧3.1

Q: What about the “Adjusted titer of sample” value [1, 10] of the same compound?
A: ≦1.99 Log10 TCID50/mL

Q: What about the “RF (Reduction Factor)” value [1, 10] of the same compound?
A: ≧3.1

Q: And the “Titer of quenched sample” value [1, 10]?
A: ≦0.69 Log10 TCID50/mL

Q: What about the “Adjusted titer of sample” value [1, 11] of the same compound?
A: ≦1.99 Log10 TCID50/mL

Q: What about the “RF (Reduction Factor)” value [1, 11] of the same compound?
A: ≧3.1

Q: And the “Titer of quenched sample” value [1, 11]?
A: ≦0.69 Log10 TCID50/mL

Q: What about the “RF (Reduction Factor)” value ([1]; 0.20% (v/v) in GE2-Fcγ-Fcε clarified conditioned media, 2-8° C., 120 min) of the same compound?
A: ≥ 2.6

Q: For N=C(N)NCCC[C@H](N)C(=O)O [Arginine, arginine], which “inactivation of non-enveloped polio virus (in words)” value [2] is on record?
A: ineffective

Q: And the “RF (Reduction Factor)” value ([3]; 240 min (non-quenched))?
A: 0.30 and 0.17

Q: And the “RF (Reduction Factor)” value ([3]; 240 min (quenched))?
A: −0.25

Q: What about the “Adjusted titer of sample” value [3] of the same compound?
A: 6.83 Log10 TCID50/mL and 7.33 Log10 TCID50/mL

Q: What about the “Adjusted titer of sample (Output virus titer)” value [3] of the same compound?
A: 7.38 Log10 TCID50/mL and 7.75 Log10 TCID50/mL

Q: And the “Titer of quenched sample” value [3]?
A: 6.38 Log10 TCID50/mL and 6.75 Log10 TCID50/mL

Q: And the “Titer of sample from TCID50 assay” value [3]?
A: 6.83 Log10 TCID50/mL and 7.33 Log10 TCID50/mL

Q: What about the “Adjusted titer of sample” value ([3]; 15 min) of the same compound?
A: 7.50 Log10 TCID50/mL and 7.25 Log10 TCID50/mL

Q: What about the “Titer of quenched sample” value ([3]; 15 min) of the same compound?
A: 6.50 Log10 TCID50/mL and 6.25 Log10 TCID50/mL

Q: What about the “Adjusted titer of sample” value ([3]; 30 min) of the same compound?
A: 7.63 Log10 TCID50/mL and 7.38 Log10 TCID50/mL

Q: What about the “Titer of quenched sample” value ([3]; 30 min) of the same compound?
A: 6.63 Log10 TCID50/mL and 6.38 Log10 TCID50/mL

Q: What about the “Adjusted titer of sample” value ([3]; 60 min) of the same compound?
A: 7.63 Log10 TCID50/mL and 7.75 Log10 TCID50/mL

Q: And the “Titer of quenched sample” value ([3]; 60 min)?
A: 6.63 Log10 TCID50/mL and 6.75 Log10 TCID50/mL

Q: And the “Adjusted titer of sample” value ([3]; 120 min)?
A: 7.50 Log10 TCID50/mL and 7.75 Log10 TCID50/mL

Q: What about the “Titer of quenched sample” value ([3]; 120 min) of the same compound?
A: 6.50 Log10 TCID50/mL and 6.75 Log10 TCID50/mL

Q: What about the “RF (Reduction Factor)” value ([4]; 5 mM Tris + 0.10M Arginine-HCl (pH 7.0), 30 min) of the same compound?
A: 0.2 and 0.3

Q: And the “RF (Reduction Factor)” value ([4]; 5 mM Tris + 0.10M Arginine-HCl (pH 7.0), 120 min)?
A: 0.3

Q: What about the “RF (Reduction Factor)” value ([4]; 5 mM Tris + 0.50M Arginine-HCl (pH 7.0), 15 min) of the same compound?
A: 1.7 and 1.6

Q: And the “RF (Reduction Factor)” value ([4]; 5 mM Tris + 0.50M Arginine-HCl (pH 7.0), 30 min)?
A: 2.3 and 2.0

Q: And the “RF (Reduction Factor)” value ([4]; 5 mM Tris + 0.50M Arginine-HCl (pH 7.0), 60 min)?
A: 2.7 and 2.5

Q: What about the “RF (Reduction Factor)” value ([4]; 5 mM Tris + 0.50M Arginine-HCl (pH 7.0), 120 min) of the same compound?
A: 3.4 and 3.5

Q: What about the “RF (Reduction Factor)” value ([4]; 5 mM Tris + 0.50M Arginine-HCl (pH 7.0), 120 min, listed as arginine) of the same compound?
A: 3.4 and 3.5

Q: And the “Sample Titer” value ([4]; 15 min)?
A: 5.59 Log10 TCID50/mL and 5.71 Log10 TCID50/mL and 4.10 Log10 TCID50/mL and 4.04 Log10 TCID50/mL

Q: What about the “Sample Titer” value ([4]; 30 min) of the same compound?
A: 5.71 Log10 TCID50/mL and 5.29 Log10 TCID50/mL and 3.50 Log10 TCID50/mL and 3.68 Log10 TCID50/mL

Q: What about the “Sample Titer” value ([4]; 60 min) of the same compound?
A: 5.65 Log10 TCID50/mL and 5.29 Log10 TCID50/mL and 3.03 Log10 TCID50/mL and 3.15 Log10 TCID50/mL

Q: What about the “X-MLV inactivation (in words)” value ([4]; pH 7) of the same compound?
A: did not occur

Q: What about the “Adjusted titer of sample” value [5, 12] of the same compound?
A: 2.95 Log10 TCID50/mL and 2.89 Log10 TCID50/mL

Q: What about the “RF (Reduction Factor)” value [5, 12] of the same compound?
A: 2.30 and 2.11

Q: And the “Titer of quenched sample” value [5, 12]?
A: 1.95 Log10 TCID50/mL and 1.89 Log10 TCID50/mL

Q: And the “Adjusted titer of sample” value [5, 13]?
A: ≦1.57 Log10 TCID50/mL

Q: What about the “Titer of quenched sample” value [5, 13] of the same compound?
A: ≦0.57 Log10 TCID50/mL

Q: And the “Adjusted titer of sample” value [5, 14]?
A: ≦1.57 Log10 TCID50/mL

Q: What about the “Titer of quenched sample” value [5, 14] of the same compound?
A: ≦0.57 Log10 TCID50/mL

Q: And the “Adjusted titer of sample” value [5, 15]?
A: ≦1.57 Log10 TCID50/mL

Q: And the “Titer of quenched sample” value [5, 15]?
A: ≦0.57 Log10 TCID50/mL

Q: What about the “Adjusted titer of sample” value [5, 16] of the same compound?
A: ≦1.53 Log10 TCID50/mL

Q: And the “Titer of sample from TCID50 assay” value [5, 16]?
A: ≦1.53 Log10 TCID50/mL

Q: And the “Adjusted titer of sample (Output virus titer)” value [5, 17]?
A: ≦1.57 Log10 TCID50/mL

Q: What about the “Titer of quenched sample” value [5, 17] of the same compound?
A: ≦0.57 Log10 TCID50/mL

Q: What about the “exposure time after which SuHV-1 titer was below the assay limit of detection” value ([5]; 1.0 M arginine (pH 7.0), duplicate runs) of the same compound?
A: 30 min

Q: What about the “X-MLV Reduction Factor in all of the arginine studies” value ([6]; 1 M arginine, with and without GE2-Fcγ-Fcε, 120 min of exposure) of the same compound?
A: ≥ 4.1

Q: And the Output titer ([6]; 1.0 M arginine-HCl, ~5 mM Tris, pH ~7.0, no GE2-Fcγ-Fcε, 2-8° C., 120 min)?
A: ≦1.17 Log10 TCID50/mL

Q: And the Output titer [6, 18]?
A: ≦1.17 Log10 TCID50/mL

Q: And the “RF (Reduction Factor)” value [6, 18]?
A: ≧4.2

Q: And the “exposure time after which X-MLV was at, or below, detectable levels” value ([6]; neutral solution containing 1 M arginine, Runs 9-12)?
A: 15 min

Q: With NCC(=O)O [Glycine, glycine, reference compound] as the compound, how does the “Adjusted titer of sample” value ([4]; pH 7) read?
A: 6.00 Log10 TCID50/mL and 5.50 Log10 TCID50/mL and 5.60 Log10 TCID50/mL and 5.38 Log10 TCID50/mL and 5.63 Log10 TCID50/mL

Q: And the “Adjusted titer of sample (Output virus titer)” value ([4]; pH 7)?
A: 5.63 Log10 TCID50/mL and 5.88 Log10 TCID50/mL

Q: What about the “Titer of quenched sample” value ([4]; pH 7) of the same compound?
A: 5.00 Log10 TCID50/mL and 4.50 Log10 TCID50/mL and 4.63 Log10 TCID50/mL and 4.38 Log10 TCID50/mL and 4.88 Log10 TCID50/mL

Q: What about the “Titer of sample from TCID50 assay” value ([4]; pH 7) of the same compound?
A: 5.60 Log10 TCID50/mL
